Reference: PubChem BioAssay AID248 (DTP/NCI, 2004)
“And” between values parts separate entries of the source, which are not always exact repeats. Equal values may be shown once. Inconclusive results and toxic doses are left out.

Tested on: L1210 leukemia ip in BDF1 mice, survival T/C
Assay: NCI In Vivo Anticancer Drug Screen. Data for tumor model L1210 Leukemia (intraperitoneal) in B6D2F1 (BDF1) mice
Settings: higher = longer survival
Procedure, shortened: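 Survival endpoint. Drug-treated group vs vehicle group, expressed as T divided by C. Tumor passaged by transplantation.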

Question: Which results are given for O=c1[nH]c(=O)n([C@H]2CCCO2)cc1F?
Answer: T/C (endpoint: mean survival time, dose: 600.0 mg/kg/injection, schedule: Q04DX003 (ip), vehicle: other): 116 % of control; T/C (endpoint: mean survival time, dose: 600.0 mg/kg/injection, schedule: Q04DX003 (ip), vehicle: saline with Tween-80): 124 % of control; T/C (endpoint: mean survival time, dose: 640.0 mg/kg/injection, schedule: Q01DX009 (ip), vehicle: saline): 104 % of control; T/C (endpoint: mean survival time, dose: 700.0 mg/kg/injection, schedule: Q01DX001 (ip), vehicle: other): 111 % of control; T/C (endpoint: mean survival time, dose: 700.0 mg/kg/injection, schedule: Q01DX001 (sc), vehicle: other): 111 % of control; T/C (endpoint: mean survival time, dose: 781.0 mg/kg/injection, schedule: Q04DX002 (sc), vehicle: clinical formulation): 100 % of control; T/C (endpoint: mean survival time, dose: 977.0 mg/kg/injection, schedule: Q01DX001 (sc), vehicle: clinical formulation): 107 % of control; T/C (endpoint: mean survival time, dose: 1000.0 mg/kg/injection, schedule: Q01DX001 (ip), vehicle: other): 96 % of control; T/C (endpoint: mean survival time, dose: 1200.0 mg/kg/injection, schedule: Q04DX003 (ip), vehicle: other): 93 % of control; T/C (endpoint: mean survival time, dose: 1300.0 mg/kg/injection, schedule: Q01DX001 (ip), vehicle: Klucel (hydroxypropylcellulose) (HPC)): 150 % of control; T/C (endpoint: mean survival time, dose: 1428.0 mg/kg/injection, schedule: Q01DX001 (ip), vehicle: other): 102 % of control; T/C (endpoint: mean survival time, dose: 1428.0 mg/kg/injection, schedule: Q01DX001 (sc), vehicle: other): 101 % of control; T/C (endpoint: mean survival time, dose: 2300.0 mg/kg/injection, schedule: Q01DX001 (ip), vehicle: Klucel (hydroxypropylcellulose) (HPC)): 115 % of control; T/C (endpoint: median survival time, dose: 5.0 mg/kg/injection, schedule: Q03HX008 (ip), vehicle: other): 95 % of control; T/C (endpoint: median survival time, dose: 5.0 mg/kg/injection, schedule: Q03HX024 (ip), vehicle: other): 95 % of control; T/C (endpoint: median survival time, dose: 9.0 mg/kg/injection, schedule: Q03HX008 (ip), vehicle: other): 96 % of control; T/C (endpoint: median survival time, dose: 9.0 mg/kg/injection, schedule: Q03HX024 (ip), vehicle: other): 102 % of control; T/C (endpoint: median survival time, dose: 14.0 mg/kg/injection, schedule: Q01DX009 (ip), vehicle: other): 100 % of control; T/C (endpoint: median survival time, dose: 14.0 mg/kg/injection, schedule: Q03HX008 (ip), vehicle: other): 94 % of control; T/C (endpoint: median survival time, dose: 14.0 mg/kg/injection, schedule: Q03HX024 (ip), vehicle: other): 96 % of control; T/C (endpoint: median survival time, dose: 23.0 mg/kg/injection, schedule: Q01DX009 (ip), vehicle: other): 103 % of control; T/C (endpoint: median survival time, dose: 23.0 mg/kg/injection, schedule: Q03HX008 (ip), vehicle: other): 93 % of control; T/C (endpoint: median survival time, dose: 23.0 mg/kg/injection, schedule: Q03HX024 (ip), vehicle: other): 103 % of control; T/C (endpoint: median survival time, dose: 39.0 mg/kg/injection, schedule: Q04DX003 (ip), vehicle: other): 111 % of control; T/C (endpoint: median survival time, dose: 39.0 mg/kg/injection, schedule: Q04DX003 (oral), vehicle: other): 100 % of control; T/C (endpoint: median survival time, dose: 39.0 mg/kg/injection, schedule: Q04DX003 (sc), vehicle: other): 106 % of control; T/C (endpoint: median survival time, dose: 65.0 mg/kg/injection, schedule: Q01DX001 (ip), vehicle: other): 100 % of control; T/C (endpoint: median survival time, dose: 65.0 mg/kg/injection, schedule: Q01DX009 (ip), vehicle: other): 104 % of control; T/C (endpoint: median survival time, dose: 65.0 mg/kg/injection, schedule: Q04DX003 (ip), vehicle: other): 95 % of control; T/C (endpoint: median survival time, dose: 65.0 mg/kg/injection, schedule: Q04DX003 (oral), vehicle: other): 103 % of control; T/C (endpoint: median survival time, dose: 65.0 mg/kg/injection, schedule: Q04DX003 (sc), vehicle: other): 101 % of control; T/C (endpoint: median survival time, dose: 75.0 mg/kg/injection, schedule: Q04DX003 (ip), vehicle: water): 95 % of control; T/C (endpoint: median survival time, dose: 108.0 mg/kg/injection, schedule: Q01DX001 (ip), vehicle: other): 122 % of control; T/C (endpoint: median survival time, dose: 108.0 mg/kg/injection, schedule: Q04DX003 (ip), vehicle: other): 100 % of control and 106 % of control; T/C (endpoint: median survival time, dose: 108.0 mg/kg/injection, schedule: Q04DX003 (oral), vehicle: other): 118 % of control; T/C (endpoint: median survival time, dose: 108.0 mg/kg/injection, schedule: Q04DX003 (sc), vehicle: other): 113 % of control; T/C (endpoint: median survival time, dose: 150.0 mg/kg/injection, schedule: Q04DX003 (ip), vehicle: water): 101 % of control; T/C (endpoint: median survival time, dose: 180.0 mg/kg/injection, schedule: Q01DX001 (ip), vehicle: other): 106 % of control; T/C (endpoint: median survival time, dose: 180.0 mg/kg/injection, schedule: Q04DX003 (ip), vehicle: other): 105 % of control and 112 % of control; T/C (endpoint: median survival time, dose: 180.0 mg/kg/injection, schedule: Q04DX003 (sc), vehicle: other): 108 % of control; T/C (endpoint: median survival time, dose: 300.0 mg/kg/injection, schedule: Q04DX003 (oral), vehicle: other): 118 % of control; T/C (endpoint: median survival time, dose: 500.0 mg/kg/injection, schedule: Q04DX003 (oral), vehicle: other): 164 % of control; T/C (endpoint: median survival time, dose: 833.0 mg/kg/injection, schedule: Q04DX003 (ip), vehicle: other): 118 % of control; T/C (endpoint: median survival time, dose: 833.0 mg/kg/injection, schedule: Q04DX003 (sc), vehicle: other): 160 % of control; T/C (endpoint: median survival time, dose: 1200.0 mg/kg/injection, schedule: Q04DX003 (ip), vehicle: water): 110 % of control; T/C (endpoint: median survival time, dose: 1300.0 mg/kg/injection, schedule: Q01DX001 (ip), vehicle: other): 104 % of control
